Measured values as given in patent US20250311722A1, “IMPROVED BIOCIDE” (Purgos ApS, priority 2022, published 2025).
Values after ≈ are worked out from the molar mass of the structure shown.

Assays:
[1] = cited from earlier work
bacteria [2] = assay: 2,2′-(octylimino)bisethanol in contaminated solution of polyisocyanate crosslinker, 32° C., cATP (LuminUltra); type: cell-based; conditions: for bacteria count: 32° C.
Protocol: For further analysing the biocidal effect of 2,2′-(octylimino)bisethanol, a solution of 2,2′-(octylimino)bisethanol was added into a contaminated solution of polyisocyanate crosslinker in two different concentrations of 0.50% and 1.00%, incubated at 32° C. and analysed for microbial activity and microbial contamination using […] Adenosine Triphosphate cATP as a measure of microbial contamination using LuminUltra® microbial monitoring system.

bacteria [3] = assay: 2,2′-(octylimino)bisethanol in K-Oleate, incubated at 32° C., cATP (LuminUltra); type: cell-based
Protocol: (§1) A solution of 2,2′-(octylimino)bisethanol was added to two different solutions comprising two different surfactants, in two different concentrations of 0.50% and 1.00%. The four different solutions incubated at 32° C. and analysed for microbial activity and microbial contamination using […] Adenosine Triphosphate cATP as a measure of microbial contamination using LuminUltra® microbial monitoring system (see e.g. Examples 1, 5 and 6). The results are summarized in tables XXV and XXVI, where “additive” refers to 2,2′-(octylimino)bisethanol.

bacteria [4] = assay: 2,2′-(octylimino)bisethanol in common surfactant/soap, at 32° C., cATP (LuminUltra); type: cell-based
Protocol: as §1

bacteria [5] = assay: APDEA in different PVB dispersions at 32° C., ATP analysis (LuminUltra); type: cell-based; design: bacteria count 6 mo after adding APDEA / bacteria count 1 d after adding APDEA / bacteria count 1 wk after adding APDEA / bacteria count 1 mo after adding APDEA / bacteria count 3 mo after adding APDEA: unit not given here
Protocol: Tertiary amine, water and PVB-dispersion was mechanically stirred in IKA vertical fixed blade stirrer for sampling in 2-5 minutes. Conditions was industrial clean, meaning no special precautions was taken to prevent contamination, except normal cleanliness and between operations dishwashing procedures.
Working temperatures was 20-25 degre Celsius, and all incubations was made in thermostatic 32-degree Celsius incubator ovens for bottled flasks and open petri dishes.
Before measuring total ATP, the samples are shaken for 30 seconds in a mechanical mixer. 1 ml of each sample is used in the process of analysing total ATP. The protocol is provided by LuminUltra Technologies.
The biocidal effectivity of APDEA in different PVB dispersions was measured as explained above in example 46. Incubation was done at 32° C. and sample tested 1 day (abbreviated as 1d in table XX), 1 week (abbreviated as 1 wk in table XX) and 1, 3 and 6 months (abbreviated as mo in tables XXIII and XXIV) after addition of APDEA.

rat = conditions: cited from earlier work
[6] = 0.50% in common surfactant/soap
[7] = 1.00% in common surfactant/soap
[8] = 0.5% APDEA, PVB dispersion FX2, 32° C.
[9] = 0.5% APDEA, PVB dispersion FX6, 32° C.
[10] = 0.5% APDEA, PVB dispersion MW, 32° C.
[11] = 0.5% APDEA, PVB dispersion SX2, 32° C.
[12] = 0.5% APDEA, PVB dispersion WX2, 32° C.
[13] = 0.5% APDEA, PVB dispersion WX25, 32° C.
[14] = 1.0% APDEA, PVB dispersion FX2, 32° C.
[15] = 1.0% APDEA, PVB dispersion FX6, 32° C.
[16] = 1.0% APDEA, PVB dispersion MW, 32° C.
[17] = 1.0% APDEA, PVB dispersion SX2, 32° C.
[18] = 1.0% APDEA, PVB dispersion WX2, 32° C.
[19] = 1.0% APDEA, PVB dispersion WX25, 32° C.

CCCCCCCCN(CCO)CCO [2,2′-(octylimino)bisethanol]
solubility in water [1]: 1400 µg/mL (≈ 6.44 mM)
solubility in water (words) [1]: water dispersible
bacteria count (bacteria [2]; 0.50%, 1 day after adding additive): 226
bacteria count (bacteria [2]; 0.50%, after 1 month): 20
bacteria count (bacteria [2]; 0.50%, after 1 week): 20
bacteria count (bacteria [2]; 0.50%, after 3 months): 282
bacteria count (bacteria [2]; 0.50%, after 6 months): 0
bacteria count (bacteria [2]; 1.00%, 1 day after adding additive): 174
bacteria count (bacteria [2]; 1.00%, after 1 month): 155
bacteria count (bacteria [2]; 1.00%, after 1 week): 180
bacteria count (bacteria [2]; 1.00%, after 3 months): 0
bacteria count (bacteria [2]; 1.00%, after 6 months): 0
effectiveness as a biocide (bacteria [2]; as low concentration as 0.50%, all three test solutions, long term (at least 6 months)): highly effective as a biocide
BSI (1 day after adding additive) (bacteria [3]; 0.50% in K-Oleate): 29
BSI (after 1 month) (bacteria [3]; 0.50% in K-Oleate): 68
BSI (after 1 week) (bacteria [3]; 0.50% in K-Oleate): 52
BSI (after 3 months) (bacteria [3]; 0.50% in K-Oleate): 80.1
BSI (after 9 months) (bacteria [3]; 0.50% in K-Oleate): 81.3
bacteria count (1 day after adding additive) (bacteria [3]; 0.50% in K-Oleate): 789
bacteria count (after 1 month) (bacteria [3]; 0.50% in K-Oleate): 215
bacteria count (after 1 week) (bacteria [3]; 0.50% in K-Oleate): 758
bacteria count (after 3 months) (bacteria [3]; 0.50% in K-Oleate): 88
bacteria count (after 6 months) (bacteria [3]; 0.50% in K-Oleate): 0
bacteria count (after 9 months) (bacteria [3]; 0.50% in K-Oleate): 30
BSI (1 day after adding additive) (bacteria [3]; 1.00% in K-Oleate): 35
BSI (after 1 month) (bacteria [3]; 1.00% in K-Oleate): 71
BSI (after 1 week) (bacteria [3]; 1.00% in K-Oleate): 43
BSI (after 3 months) (bacteria [3]; 1.00% in K-Oleate): 82.4
BSI (after 6 months) (bacteria [3]; 1.00% in K-Oleate): 30.6
BSI (after 9 months) (bacteria [3]; 1.00% in K-Oleate): 88.8
bacteria count (1 day after adding additive) (bacteria [3]; 1.00% in K-Oleate): 284
bacteria count (after 1 month) (bacteria [3]; 1.00% in K-Oleate): 50
bacteria count (after 1 week) (bacteria [3]; 1.00% in K-Oleate): 176
bacteria count (after 3 months) (bacteria [3]; 1.00% in K-Oleate): 39
bacteria count (after 6 months) (bacteria [3]; 1.00% in K-Oleate): 629
bacteria count (after 9 months) (bacteria [3]; 1.00% in K-Oleate): 13
BSI (1 day after adding additive) (bacteria [4]; [6]): 18
BSI (after 1 month) (bacteria [4]; [6]): 47
BSI (after 1 week) (bacteria [4]; [6]): 14
BSI (after 3 months) (bacteria [4]; [6]): 75
BSI (after 9 months) (bacteria [4]; [6]): 90.8
bacteria count (1 day after adding additive) (bacteria [4]; [6]): 917
bacteria count (after 1 month) (bacteria [4]; [6]): 360
bacteria count (after 1 week) (bacteria [4]; [6]): 5040
bacteria count (after 3 months) (bacteria [4]; [6]): 28.5
bacteria count (after 6 months) (bacteria [4]; [6]): 0
bacteria count (after 9 months) (bacteria [4]; [6]): 7.5
BSI (1 day after adding additive) (bacteria [4]; [7]): 18
BSI (after 1 month) (bacteria [4]; [7]): 80
BSI (after 1 week) (bacteria [4]; [7]): 13
BSI (after 3 months) (bacteria [4]; [7]): 53.1
BSI (after 6 months) (bacteria [4]; [7]): 55.6
BSI (after 9 months) (bacteria [4]; [7]): 39.2
bacteria count (1 day after adding additive) (bacteria [4]; [7]): 369
bacteria count (after 1 month) (bacteria [4]; [7]): 2.6
bacteria count (after 1 week) (bacteria [4]; [7]): 141
bacteria count (after 3 months) (bacteria [4]; [7]): 20.7
bacteria count (after 6 months) (bacteria [4]; [7]): 5.86
bacteria count (after 9 months) (bacteria [4]; [7]): 10.5

NCCCN(CCO)CCO [APDEA, N-(3-Aminopropyl) diethanolamine]
solubility in water (words) [1]: water soluble
bacteria count 1 mo after adding APDEA (bacteria [5]; [8]): 35
bacteria count 1 wk after adding APDEA (bacteria [5]; [8]): 73
bacteria count 3 mo after adding APDEA (bacteria [5]; [8]): 83
bacteria count 6 mo after adding APDEA (bacteria [5]; [8]): 195
bacteria count 1 d after adding APDEA (bacteria [5]; [8]): 25
bacteria count 1 mo after adding APDEA (bacteria [5]; [9]): 40
bacteria count 1 wk after adding APDEA (bacteria [5]; [9]): 33
bacteria count 3 mo after adding APDEA (bacteria [5]; [9]): 65
bacteria count 6 mo after adding APDEA (bacteria [5]; [9]): 96.6
bacteria count 1 d after adding APDEA (bacteria [5]; [9]): 71
bacteria count 1 mo after adding APDEA (bacteria [5]; [10]): 60
bacteria count 1 wk after adding APDEA (bacteria [5]; [10]): 33
bacteria count 3 mo after adding APDEA (bacteria [5]; [10]): 84
bacteria count 6 mo after adding APDEA (bacteria [5]; [10]): 45
bacteria count 1 d after adding APDEA (bacteria [5]; [10]): 82
bacteria count 1 mo after adding APDEA (bacteria [5]; [11]): 85
bacteria count 1 wk after adding APDEA (bacteria [5]; [11]): 66
bacteria count 3 mo after adding APDEA (bacteria [5]; [11]): 48
bacteria count 6 mo after adding APDEA (bacteria [5]; [11]): 79
bacteria count 1 d after adding APDEA (bacteria [5]; [11]): 29
bacteria count 1 mo after adding APDEA (bacteria [5]; [12]): 50
bacteria count 1 wk after adding APDEA (bacteria [5]; [12]): 116
bacteria count 3 mo after adding APDEA (bacteria [5]; [12]): 38.8
bacteria count 6 mo after adding APDEA (bacteria [5]; [12]): 22
bacteria count 1 d after adding APDEA (bacteria [5]; [12]): 59
bacteria count 1 mo after adding APDEA (bacteria [5]; [13]): 98
bacteria count 1 wk after adding APDEA (bacteria [5]; [13]): 95
bacteria count 3 mo after adding APDEA (bacteria [5]; [13]): 177
bacteria count 6 mo after adding APDEA (bacteria [5]; [13]): 93
bacteria count 1 d after adding APDEA (bacteria [5]; [13]): 71
biocidal effect as sole biocide (bacteria [5]; 0.5 and 1 wt % to water phase): effects similar to NBDA
bacteria count 1 mo after adding APDEA (bacteria [5]; [14]): 78
bacteria count 1 wk after adding APDEA (bacteria [5]; [14]): 80
bacteria count 3 mo after adding APDEA (bacteria [5]; [14]): 134
bacteria count 6 mo after adding APDEA (bacteria [5]; [14]): 167
bacteria count 1 d after adding APDEA (bacteria [5]; [14]): 66
bacteria count 1 mo after adding APDEA (bacteria [5]; [15]): 100
bacteria count 1 wk after adding APDEA (bacteria [5]; [15]): 22.4
bacteria count 3 mo after adding APDEA (bacteria [5]; [15]): 99
bacteria count 6 mo after adding APDEA (bacteria [5]; [15]): 132
bacteria count 1 d after adding APDEA (bacteria [5]; [15]): 12
bacteria count 1 mo after adding APDEA (bacteria [5]; [16]): 110
bacteria count 1 wk after adding APDEA (bacteria [5]; [16]): 115
bacteria count 3 mo after adding APDEA (bacteria [5]; [16]): 98
bacteria count 6 mo after adding APDEA (bacteria [5]; [16]): 38
bacteria count 1 d after adding APDEA (bacteria [5]; [16]): 75
bacteria count 1 mo after adding APDEA (bacteria [5]; [17]): 98
bacteria count 1 wk after adding APDEA (bacteria [5]; [17]): 81
bacteria count 3 mo after adding APDEA (bacteria [5]; [17]): 92
bacteria count 6 mo after adding APDEA (bacteria [5]; [17]): 98
bacteria count 1 d after adding APDEA (bacteria [5]; [17]): 69
bacteria count 1 mo after adding APDEA (bacteria [5]; [18]): 33
bacteria count 1 wk after adding APDEA (bacteria [5]; [18]): 18
bacteria count 3 mo after adding APDEA (bacteria [5]; [18]): 78
bacteria count 6 mo after adding APDEA (bacteria [5]; [18]): 20
bacteria count 1 d after adding APDEA (bacteria [5]; [18]): 45
bacteria count 1 mo after adding APDEA (bacteria [5]; [19]): 75
bacteria count 1 wk after adding APDEA (bacteria [5]; [19]): 136
bacteria count 3 mo after adding APDEA (bacteria [5]; [19]): 151
bacteria count 6 mo after adding APDEA (bacteria [5]; [19]): 35
bacteria count 1 d after adding APDEA (bacteria [5]; [19]): 72

[Cl-].[Na+] [NaCl, reference compound]
LD50 (rat, oral) (rat): 3000 mg
